Measurements: the NIST ThermoML archive (doi:10.1016/j.jct.2013.03.003)
Numbers after ± are expanded uncertainties.

Assay: osmotic coefficient (dimensionless); mn = molality of the nth substance listed, in mol/kg
Details: 298.15 K, Liquid, isopiestic method

[Br-].[K+] [potassium bromide] + O
Details	osmotic coefficient
m1 = 2.545	0.9434 ± 0.0029
m1 = 2.703	0.9473 ± 0.0027
m1 = 2.947	0.9544 ± 0.0023
m1 = 3.171	0.9579 ± 0.0021
m1 = 3.46	0.965 ± 0.0019
m1 = 3.778	0.9757 ± 0.0015
m1 = 4.026	0.9849 ± 0.0011
m1 = 4.214	0.9911 ± 0.0009
m1 = 4.694	1.0054 ± 0.001
m1 = 5.41	1.032 ± 0.002
